This passage reports IC50 and inhibition in vivo results from patent publication US9012431B2, “Boron-containing small molecules as anti-inflammatory agents” (Anacor Pharmaceuticals, Inc., priority 2008, dated 2015).

One experiment deals with TNF-α. Kind of experiment: Cytokine assay, TNF-α release from PBMC. It counts as cell-based. Particulars: Homo sapiens, PBMC, 24 h, 1 μg/mL LPS, supernatant at 24 hours. The essentials: (§1)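 Cryopreserved human PBMC were thawed and resuspended in RPMI 1640 with 10% FBS. Test compounds, diluted from 10 mM DMSO stocks, were applied in triplicate at 10, 1, 0.1 and 0.01 μM, and cytokine release was measured.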

In a further experiment the test system is IL-2. Put plainly: Cytokine assay, IL-2 release from PBMC. It counts as cell-based. Particulars: human PBMC, 20 ug/mL PHA, supernatant at 24 hours. The essentials:
as §1

The test system of the next experiment is IFN-γ. Kind of experiment: Cytokine assay, IFN-γ release from PBMC. Particulars: human PBMC, 20 ug/mL PHA, supernatant at 24 hours. Format: cell-based. The essentials:
as §1

The subject of a further experiment is IL-5. Put plainly: Cytokine assay, IL-5 release from PBMC. It counts as cell-based. Conditions: human PBMC, 20 ug/mL PHA, supernatant at 48 hours. The essentials:
as §1

Another experiment relates to IL-10. Kind of experiment: Cytokine assay, IL-10 release from PBMC. It counts as cell-based. Particulars: human PBMC, 20 ug/mL PHA, supernatant at 48 hours. The essentials:
as §1

Experiment [1] has as its system T1, PDE4 partially purified from human U-937 myeloid leukemia cells.
T1 construct: PDE4 partially purified from human U-937 myeloid leukemia cells was used
Kind of experiment: PDE4 Assay (enzyme from U-937 cells, [3H]cAMP). Particulars: PDE4 from U-937 cells, Tris buffer pH 7.5, 20 minutes at 25° C. It counts as biochemical.

The test system of experiment [2] is CD-1 (Crl.) derived male mice. Kind of experiment: Phorbol Ester Induced Mouse Ear Edema Model. Conditions: topical, 6 h, 1 mg/ear × 2 topical. It counts as in vivo. The method, then: 1. In Vivo Anti-Inflammation Activity in Phorbol Ester Induced Mouse Ear Edema Model
[…] Dexamethasone (1 mg/ear×2) used as the positive control was administered topically to test animals using the same application schedule. Ear swelling was then measured by a Dyer model micrometer gauge at 6 hours after PMA application as an index of inflammation. Percent inhibition was calculated according to the formula: [(Ic−It)/Ic]×100%, where Ic and It refer to increase of ear thickness (mm) in control and treated mice, respectively.

[3] abbreviates: Acetone:Ethanol/1:1, ear swelling 6 hours after PMA.

Counter-ions that a name gives are not always drawn.

The IC50 is the concentration that inhibits the measured activity by half. Low readings indicate greater potency in that assay, high ones weaker potency in that assay. Broadly, the inhibition in vivo is the share of the control response that was lost under treatment. Read a low inhibition in vivo as a weak effect. Turning to `N#Cc1ccc(Oc2ccc3c(c2)COB3O)cc1O` [D10, 5-(4-Cyano-3-hydroxyphenoxy)-1,3-dihydro-1-hydroxy-2,1-benzoxaborole], the IC50 in the experiment with TNF-α is under 1000 nM; in the experiment with IL-2, 4000 to 10000 nM; in the experiment on IFN-γ, 4000 to 10000 nM; with IL-5, 4000 to 10000 nM; with IL-10 it was 1000 to 4000 nM; in experiment [1] it was 1000 to 4000 nM. In addition, the inhibition in vivo at 1 mg in experiment [2] (setting [3]) was in the range of 60 to 90%.
Consider `N#Cc1ccc(Oc2ccc3c(c2)COB3O)c(CO)c1` [D24, 5-[4-Cyano-2-(hydroxymethyl)phenoxy]-1,3-dihydro-1-hydroxy-2,1-benzoxaborole], for which the IC50 with TNF-α lay in the range of 1000 to 4000 nM. In experiment [2] (setting [3]), the inhibition in vivo at 1 mg was in the range of 60 to 90%.
For the compound `N#Cc1ccc(Oc2ccc3c(c2)COB3O)c(OCc2ccccn2)c1` [D31, 2-((5-cyano-2-(1-hydroxy-1,3-dihydrobenzo[c][1,2]oxaborol-5-yloxy)phenoxy)methyl)pyridine hydrochloride], the IC50 in the experiment on TNF-α is 1000 to 4000 nM. This compound also displayed an inhibition in vivo at 1 mg in experiment [2] (setting [3]) of 30 to 60%.
`O=Cc1ccc(Oc2ccc3c(c2)COB3O)nc1` [D69, 6-(1-Hydroxy-1,3-dihydrobenzo[c][1,2]oxaborol-5-yloxy)nicotinaldehyde]: the IC50 in the experiment on TNF-α is 1000 to 4000 nM; with IL-2 it was 1000 to 4000 nM; with IFN-γ it was 1000 to 4000 nM; in experiment [1], under 1000 nM. This compound also yielded an inhibition in vivo at 1 mg in experiment [2] (vehicle not given, ear swelling 6 hours after PMA) of 30 to 60%.
In the case of `CS(=O)(=O)c1ccc(Oc2ccc3c(c2)COB3O)cc1` [D103, 5-(4-(methylsulfonyl)phenoxy)benzo[c][1,2]oxaborol-1 (3H)-ol], the IC50 was 1000 to 4000 nM in the experiment on TNF-α; under 1000 nM in the experiment on IL-2; under 1000 nM in the experiment with IFN-γ; under 1000 nM in the experiment on IL-5; 1000 to 4000 nM in the experiment with IL-10; 1000 to 4000 nM in experiment [1].
Consider `CC(C)S(=O)(=O)c1ccc(Oc2ccc3c(c2)COB3O)cc1` [D104, 5-(4-(isopropylsulfonyl)phenoxy)benzo[c][1,2]oxaborol-1 (3H)-ol], for which the IC50 with TNF-α is 1000 to 4000 nM; with IL-2, 1000 to 4000 nM; in the experiment on IFN-γ, 1000 to 4000 nM; in the experiment on IL-5 it was 4000 to 10000 nM; with IL-10, 4000 to 10000 nM; in experiment [1] it was under 1000 nM.
`CCS(=O)(=O)c1ccc(Oc2ccc3c(c2)COB3O)cc1` [D105, 5-(4-(ethylsulfonyl)phenoxy)benzo[c][1,2]oxaborol-1 (3H)-ol]: the IC50 in the experiment with TNF-α fell in the range of 1000 to 4000 nM; with IL-2 it was 1000 to 4000 nM; in the experiment on IFN-γ, 1000 to 4000 nM; with IL-5 it was 4000 to 10000 nM; with IL-10, 1000 to 4000 nM; in experiment [1], 1000 to 4000 nM.
For `N#Cc1ccc(NCCO)nc1Oc1ccc2c(c1)COB2O` [D106, 2-(1-Hydroxy-1,3-dihydro-benzo[c][1,2]oxaborol-5-yloxy)-6-(2-hydroxy-ethylamino)-nicotinonitrile], the IC50 with TNF-α was under 1000 nM; in the experiment with IL-2, under 1000 nM; with IFN-γ, under 1000 nM; with IL-5, under 1000 nM; in the experiment with IL-10, 4000 to 10000 nM; in experiment [1], under 1000 nM.
Regarding `COc1nc(Oc2ccc3c(c2)COB3O)ccc1C(N)=O` [D112, 6-(1-Hydroxy-1,3-dihydro-benzo[c][1,2]oxaborol-5-yloxy)-2-methoxy-nicotinamide], the IC50 in the experiment with TNF-α was under 1000 nM; in the experiment on IL-2 it was under 1000 nM; in the experiment with IFN-γ it was under 1000 nM; with IL-5 it was 1000 to 4000 nM; in the experiment with IL-10, under 1000 nM; in experiment [1], under 1000 nM.
With `N#Cc1ccc(Oc2ccc3c(c2)COB3O)nc1NCCOCc1ccccc1` [D113, 2-(2-Benzyloxy-ethylamino)-6-(1-hydroxy-1,3-dihydro-benzo[c][1,2]oxaborol-5-yloxy)-nicotinonitrile], the 50% inhibitory concentration (IC50) in the experiment on TNF-α was under 1000 nM; in the experiment with IL-2 it was under 1000 nM; in the experiment with IFN-γ, under 1000 nM; with IL-5, under 1000 nM; with IL-10 it was 4000 to 10000 nM; in experiment [1] it was under 1000 nM.
For the compound `CN(CCO)c1nc(Oc2ccc3c(c2)COB3O)ccc1C#N` [D115, 6-(1-Hydroxy-1,3-dihydro-benzo[c][1,2]oxaborol-5-yloxy)-2-[(2-hydroxy-ethyl)-methyl-amino]-nicotinonitrile], the IC50 with TNF-α was under 1000 nM; in the experiment on IL-2, under 1000 nM; in the experiment on IFN-γ, under 1000 nM; with IL-5 it was under 1000 nM; with IL-10, 4000 to 10000 nM; in experiment [1], under 1000 nM.
As for `COc1nc(Oc2ccc3c(c2)COB3O)ncc1C#N` [D116, 2-(1-Hydroxy-1,3-dihydro-benzo[c][1,2]oxaborol-5-yloxy)-4-methoxy-pyrimidine-5-carbonitrile], the IC50 with TNF-α was under 1000 nM; in the experiment on IL-2, under 1000 nM; with IFN-γ, under 1000 nM; with IL-5 it was under 1000 nM; in the experiment on IL-10, 1000 to 4000 nM; in experiment [1], under 1000 nM.
With `N#Cc1cnc(Oc2ccc3c(c2)COB3O)cc1OCCOC1CCCCO1` (stereo not shown) [D118, 6-(1-Hydroxy-1,3-dihydro-benzo[c][1,2]oxaborol-5-yloxy)-4-[2-(tetrahydro-pyran-2-yloxy)-ethoxy]-nicotinonitrile], the IC50 is under 1000 nM in the experiment on TNF-α; under 1000 nM with IL-2; under 1000 nM with IFN-γ; under 1000 nM with IL-5; 1000 to 4000 nM with IL-10; under 1000 nM in experiment [1].
Regarding `N#Cc1cnc(Oc2ccc3c(c2)COB3O)cc1OCCO` [D119, 6-(1-Hydroxy-1,3-dihydro-benzo[c][1,2]oxaborol-5-yloxy)-4-(2-hydroxy-ethoxy)-nicotinonitrile], the IC50 (with TNF-α; with IL-2; in the experiment with IFN-γ; in the experiment on IL-5; in the experiment with IL-10; in experiment [1]) was under 1000 nM in each case.
With `CCOc1cc(Oc2ccc3c(c2)COB3O)ncc1C#N` [D120, 4-Ethoxy-6-(1-hydroxy-1,3-dihydro-benzo[c][1,2]oxaborol-5-yloxy)-nicotinonitrile], the IC50 (with TNF-α; in the experiment with IL-2; in the experiment with IFN-γ; in the experiment with IL-5; in the experiment on IL-10; in experiment [1]) was under 1000 nM throughout.
Regarding `N#Cc1cnc(Oc2ccc3c(c2)COB3O)c(O)c1` [D123, 5-Hydroxy-6-(1-hydroxy-1,3-dihydro-benzo[c][1,2]oxaborol-5-yloxy)-nicotinonitrile], the IC50 was under 1000 nM with TNF-α; under 1000 nM in the experiment on IL-2; under 1000 nM with IFN-γ; 1000 to 4000 nM in the experiment on IL-5; 1000 to 4000 nM with IL-10; under 1000 nM in experiment [1].
Consider `N#Cc1ccc(Oc2ccc3c(c2)COB3O)nc1OCC(F)(F)F` [D125, 6-(1-Hydroxy-1,3-dihydro-benzo[c][1,2]oxaborol-5-yloxy)-2-(2,2,2-trifluoro-ethoxy)-nicotinonitrile], for which the IC50 (with TNF-α; with IL-2; with IFN-γ; in the experiment with IL-5; with IL-10; in experiment [1]) was under 1000 nM in each case.
For the compound `CC(=O)OCCOc1nc(Oc2ccc3c(c2)COB3O)ccc1C#N` [D126, 2-[3-cyano-6-(1-hydroxy-1,3-dihydro-benzo[c][1,2]oxaborol-5-yloxy)-pyridin-2-yloxy]-ethyl acetate], the IC50 (in the experiment on TNF-α; in the experiment on IL-2; in the experiment on IFN-γ; in the experiment with IL-5; in the experiment with IL-10; in experiment [1]) was under 1000 nM in each case.
In the case of `N#Cc1ccc(Oc2ccc3c(c2)COB3O)nc1OCC(F)F` [D127, 2-(2,2-Difluoro-ethoxy)-6-(1-hydroxy-1,3-dihydro-benzo[c][1,2]oxaborol-5-yloxy)-nicotinonitrile], the IC50 (in the experiment with TNF-α; in the experiment on IL-2; with IFN-γ; with IL-5; with IL-10; in experiment [1]) was under 1000 nM each time.
In the case of `CC(C)Oc1nc(Oc2ccc3c(c2)COB3O)ccc1C#N` [D128, 6-(1-Hydroxy-1,3-dihydro-benzo[c][1,2]oxaborol-5-yloxy)-2-isopropoxy-nicotinonitrile], the IC50 (with TNF-α; with IL-2; in the experiment on IFN-γ; in the experiment on IL-5; in the experiment with IL-10; in experiment [1]) was under 1000 nM each time.
Take `N#Cc1ccc(Oc2ccc3c(c2)COB3O)nc1N` [D130, 2-amino-6-(1-hydroxy-1,3-dihydro-benzo[c][1,2]oxaborol-5-yloxy)-nicotinonitrile]: the IC50 (in the experiment on TNF-α; in the experiment with IL-2; in the experiment on IFN-γ; with IL-5; in the experiment with IL-10; in experiment [1]) was under 1000 nM throughout.
In the case of `CCCOc1nc(Oc2ccc3c(c2)COB3O)ccc1C#N` [D131, 6-(1-Hydroxy-1,3-dihydro-benzo[c][1,2]oxaborol-5-yloxy)-2-propoxy-nicotinonitrile], the IC50 (with TNF-α; in the experiment on IL-2; in the experiment with IFN-γ; in the experiment with IL-5; in the experiment with IL-10; in experiment [1]) was under 1000 nM throughout.
